≈ marks a conversion by molar mass, not a printed value. Like-named read-outs stand apart in the source and are kept apart here.
Columns and labels:
[1] = system: Acinotebacter baumannii RUH 875; format: cell-based; conditions: 24 h
Procedure: (§1) Peptide MICs were determined against strains of several bacterial species, including Gram-negative and Gram-positive pathogens (Table 1 and 2). Activity of tetra-branched D-M33 was retained against MDR strains with various resistance mechanisms (such as extended-spectrum beta-lactamases and carbapenemases), including MDR P. aeruginosa strains from CF patients. The antimicrobial activity of tetra-branched D-M33 appeared slightly better with respect to tetra-branched L-M33 for MDR strains of Pseudomonas and one strain of Klebsiella and sensitively better respect to tetra-branched L-M33 for the two strains of Staphyloccoccus aureus reported in Table 1.

[2] = system: Acinotebacter baumannii RUH 134; format: cell-based; conditions: 24 h
Procedure: as §1

E. coli ATCC 25922 = format: cell-based; conditions: ATCC 25922, 24 h
Procedure: as §1

[3] = system: P. aeruginosa VenM rugosa 05/04/2005; format: cell-based; conditions: VenM rugosa 05/04/2005, 24 h
Procedure: as §1

[4] = system: Klebsiella pneumoniae ATCC 13833; format: cell-based; conditions: ATCC 13833, 24 h
Procedure: as §1

P. aeruginosa PAO-1 = format: cell-based; conditions: PAO-1, 24 h
Procedure: as §1

C. albicans 9833 = conditions: 9833, 24 h
[5] = animals treated ip, peptide dose 100 mg/Kg
C. tropicalis 6597 = conditions: 6597, 24 h
C. glabrata ATCC 90030 = conditions: ATCC 90030, 24 h
E. coli TG1 = test: In vivo antibacterial activity, lethal E. coli infection in mice; conditions: Balb-c mice, LD100 E. coli ip; single dose 10 mg/Kg ip 1 hour later
Procedure: (§2) In vivo antibacterial activity of tetra-branched D-M33 peptide. Balb-c mice (20 g) were intra-peritoneally injected with a lethal amount of E. coli TG1 cells (1×10^9 CFU). Continuous line (Ctr) indicates mice only injected ip with bacteria and no D-M33. Broken line indicates mice injected ip with bacteria and a single injection of D-M33 peptide 10 mg/Kg 1 hour later.
(§3) Tetra-branched D-M33 peptide was analysed for its antibacterial activity in mice infected with lethal amounts of the Gram-negative bacterium E. coli or the Gram-positive bacterium S. aureus.
(§4) Balb-c mice were infected with the LD100 of bacteria and treated 1 hour later with the peptide by ip administration.

human erythrocytes = test: Haemolysis of human erythrocytes (method of Parpart); format: cell-based; conditions: for haemolytic activity (percentage of haemolysis): red cells of human
Procedure: Effect of tetra-branched L-M33, D-M33 and monomeric Indolicidin on haemolysis of human erythrocytes. The figures show the haemolytic activity of the three peptides on human erythrocytes evaluated by means of erythrocyte osmotic resistance of Parpart method in NaCl. The percentage of haemolysis is calculated by means of a calibration curve obtained by incubating erythrocytes with increasing concentrations of NaCl. […] The percentage of haemolysis of untreated blood after 19 hours (control) is very limited (<1%).
Haemolysis of fresh human erythrocytes was determined using the method of Parpart, summarized as follows. A calibration curve was constructed by suspending fresh human erythrocytes in phosphate buffer (pH 7.4, 110 mM sodium phosphate) with various concentrations of NaCl and incubated for 30 min at room temperature. Samples were centrifuged at 500×g for 5 minutes, and haemoglobin release was monitored by measuring the absorbance of supernatants at 540 nm. The absorbance obtained with 0.1% NaCl corresponded to 100% lysis and that with 1% NaCl, to 0% lysis. Peptides dissolved in PBS were added to human erythrocyte solution at several concentrations. The resulting suspension was incubated separately at 37° C. for 2 h and 24 h. Release of hemoglobin was monitored by measuring the absorbance of the suspernatant at 540 nm after centrifuging and haemolysis percentage was calculated using the calibration curve.

S. epidermidis 6154 = conditions: 6154, 24 h
Procedure: (§5) Minimum Inhibitory Concentration (MIC) was determined by a standard microdilution assay as recommended by the National Committee for Clinical Laboratory Standards (NCCLS) using cation-supplemented Mueller-Hinton (MH) broth (Oxoid Ltd. Basingstoke, UK) and a bacterial inoculum of 5×10^4 CFU per well, in a final volume of 100 μl. Results were recorded by visual inspection after 24 h of incubation at 37° C.

E. faecium FI81B2 VSE = conditions: 24 h
Procedure: as §5

[6] = system: Staphylococcus aureus 3851; conditions: 3851, 24 h
Procedure: as §5

S. aureus ATCC 29213 = conditions: ATCC 29213, 24 h
Procedure: as §5

S. pneumoniae ATCC 49619 = conditions: ATCC 49619, 24 h
Procedure: as §5

S. pneumoniae 47C12 = conditions: 47C12, 24 h
Procedure: as §5

S. agalactiae ATCC 13813 = conditions: ATCC 13813, 24 h
Procedure: as §5

E. faecium FI81B1 VRE = conditions: 24 h
Procedure: as §5

S. pneumoniae 47D22 = conditions: 47D22, 24 h
Procedure: as §5

E. faecalis FI74B4 VSE = conditions: 24 h
Procedure: as §5

E. faecalis ATCC 29212 = conditions: ATCC 29212, 24 h
Procedure: as §5

S. epidermidis 4761/1 = conditions: 4761/1, 24 h
Procedure: as §5

S. aureus USA 300 = test: In vivo antibacterial activity, lethal S. aureus infection in mice; conditions: Balb-c mice, LD100 S. aureus ip; single dose 25 mg/Kg ip 1 hour later
Procedure: as §2, with “S. aureus USA 300” for “E. coli TG1”, “(5×10^6 CFU) mixed in a 7% mucin solution. Control” for “(1×10^9 CFU). Continuous”, “D-M33” for “Broken”, “25” for “10”, “later. P<0.05.” for “later.”
as §3, §4

[7] = system: S. epidermidis ATCC 14990; test: MIC, microdilution assay; format: cell-based; conditions: S. epidermidis ATCC 14990, reference strain
Procedure: as §5

S. capitis ATCC 27840 = test: MIC, microdilution assay; format: cell-based; conditions: S. capitis ATCC 27840, reference strain
Procedure: as §5

C. krusei ATCC 6268 = conditions: ATCC 6268, 24 h
[8] = system: C. parapsilosis ATCC 90018; conditions: ATCC 90018, 24 h
Aureolysin = Aureolysin (Staphylococcus aureus, UniProt P81177); format: in vitro ADME; conditions: incubation with S. aureus Aureolysin, 1 hour / 24 hours
Procedure: HPLC profiles of tetra-branched peptides L-M33 (A) and D-M33 (B) after incubation with the protease Aureolysin derived from S. aureus.

Sequence of Aureolysin (P81177 209-509): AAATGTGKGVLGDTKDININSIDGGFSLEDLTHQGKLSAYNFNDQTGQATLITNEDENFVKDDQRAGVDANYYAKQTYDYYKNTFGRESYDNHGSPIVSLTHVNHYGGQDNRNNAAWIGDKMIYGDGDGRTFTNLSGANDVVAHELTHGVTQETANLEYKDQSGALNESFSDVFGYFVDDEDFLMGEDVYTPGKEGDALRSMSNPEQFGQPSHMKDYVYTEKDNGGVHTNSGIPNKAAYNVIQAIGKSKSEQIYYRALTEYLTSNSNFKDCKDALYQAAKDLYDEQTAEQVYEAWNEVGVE

## CC[C@@H](C)[C@@H](NC(=O)[C@@H](CCCCN)NC(=O)[C@H](N)CCCCN)C(=O)N[C@H](CCCNC(=N)N)C(=O)N[C@@H](C(=O)N[C@H](CCCNC(=N)N)C(=O)N[C@H](CC(C)C)C(=O)N[C@H](CO)C(=O)N[C@H](C)C(=O)NCCCCC(NC(=O)[C@@H](C)NC(=O)[C@@H](CO)NC(=O)[C@@H](CC(C)C)NC(=O)[C@@H](CCCNC(=N)N)NC(=O)[C@H](NC(=O)[C@@H](CCCNC(=N)N)NC(=O)[C@H](NC(=O)[C@@H](CCCCN)NC(=O)[C@H](N)CCCCN)[C@H](C)CC)C(C)C)C(=O)NCCCCC(NC(=O)C(CCCCNC(=O)[C@@H](C)NC(=O)[C@@H](CO)NC(=O)[C@@H](CC(C)C)NC(=O)[C@@H](CCCNC(=N)N)NC(=O)[C@H](NC(=O)[C@@H](CCCNC(=N)N)NC(=O)[C@H](NC(=O)[C@@H](CCCCN)NC(=O)[C@H](N)CCCCN)[C@H](C)CC)C(C)C)NC(=O)[C@@H](C)NC(=O)[C@@H](CO)NC(=O)[C@@H](CC(C)C)NC(=O)[C@@H](CCCNC(=N)N)NC(=O)[C@H](NC(=O)[C@@H](CCCNC(=N)N)NC(=O)[C@H](NC(=O)[C@@H](CCCCN)NC(=O)[C@H](N)CCCCN)[C@H](C)CC)C(C)C)C(=O)NCCC(=O)O)C(C)C (stereo partly drawn) [D-M33, KKIRVRLSA]
[1]
  MIC: 3 µM (≈ 14 µg/mL)
[2]
  MIC: 3 µM (≈ 14 µg/mL)
E. coli ATCC 25922
  MIC: 1.5 µM (≈ 7.02 µg/mL)
[3]
  MIC: 0.7 µM (≈ 3.28 µg/mL)
[4]
  MIC: 0.7 µM (≈ 3.28 µg/mL)
P. aeruginosa PAO-1
  MIC: 0.7 µM (≈ 3.28 µg/mL)
C. albicans 9833
  MIC: 24 µM (≈ 112 µg/mL)
[5]
  apparent toxicity signs: did not produce apparent toxicity signs
C. tropicalis 6597
  MIC: 12 µM (≈ 56.2 µg/mL)
C. glabrata ATCC 90030
  MIC: 12 µM (≈ 56.2 µg/mL)
E. coli TG1
  animals protected from signs of sepsis and death (seven-day survival): 100%
Human erythrocytes
  haemolysis, result in words: negligible haemolysis grade
  haemolytic activity (percentage of haemolysis): < 5%
S. epidermidis 6154
  MIC: 0.35 µM (≈ 1.64 µg/mL)
E. faecium FI81B2 VSE
  MIC: 0.7 µM (≈ 3.28 µg/mL)
[6]
  MIC: 0.7 µM (≈ 3.28 µg/mL)
S. aureus ATCC 29213
  MIC: 3 µM (≈ 14 µg/mL)
S. pneumoniae ATCC 49619
  MIC: 6 µM (≈ 28.1 µg/mL)
S. pneumoniae 47C12
  MIC: 12 µM (≈ 56.2 µg/mL)
S. agalactiae ATCC 13813
  MIC: 1.5 µM (≈ 7.02 µg/mL)
E. faecium FI81B1 VRE
  MIC: 0.7 µM (≈ 3.28 µg/mL)
S. pneumoniae 47D22
  MIC: 6 µM (≈ 28.1 µg/mL)
E. faecalis FI74B4 VSE
  MIC: 0.7 µM (≈ 3.28 µg/mL)
E. faecalis ATCC 29212
  MIC: 0.7 µM (≈ 3.28 µg/mL)
S. epidermidis 4761/1
  MIC: 0.35 µM (≈ 1.64 µg/mL)
S. aureus USA 300
  animals protected from signs of sepsis and death (seven-day survival): 100%
[7]
  MIC: 0.35 µM (≈ 1.64 µg/mL)
S. capitis ATCC 27840
  MIC: 0.35 µM (≈ 1.64 µg/mL)
C. krusei ATCC 6268
  MIC: 6 µM (≈ 28.1 µg/mL)
[8]
  MIC: 1.5 µM (≈ 7.02 µg/mL)

## Indolicidin [reference compound]
Human erythrocytes; human erythrocytes (FIG. 2)
  haemolysis, result in words: more haemolytic

## CC[C@H](C)[C@H](NC(=O)[C@H](CCCCN)NC(=O)[C@@H](N)CCCCN)C(=O)N[C@@H](CCCNC(=N)N)C(=O)N[C@H](C(=O)N[C@@H](CCCNC(=N)N)C(=O)N[C@@H](CC(C)C)C(=O)N[C@@H](CO)C(=O)N[C@@H](C)C(=O)NCCCC[C@H](NC(=O)[C@H](C)NC(=O)[C@H](CO)NC(=O)[C@H](CC(C)C)NC(=O)[C@H](CCCNC(=N)N)NC(=O)[C@@H](NC(=O)[C@H](CCCNC(=N)N)NC(=O)[C@@H](NC(=O)[C@H](CCCCN)NC(=O)[C@@H](N)CCCCN)[C@@H](C)CC)C(C)C)C(=O)NCCCC[C@H](NC(=O)[C@H](CCCCNC(=O)[C@H](C)NC(=O)[C@H](CO)NC(=O)[C@H](CC(C)C)NC(=O)[C@H](CCCNC(=N)N)NC(=O)[C@@H](NC(=O)[C@H](CCCNC(=N)N)NC(=O)[C@@H](NC(=O)[C@H](CCCCN)NC(=O)[C@@H](N)CCCCN)[C@@H](C)CC)C(C)C)NC(=O)[C@H](C)NC(=O)[C@H](CO)NC(=O)[C@H](CC(C)C)NC(=O)[C@H](CCCNC(=N)N)NC(=O)[C@@H](NC(=O)[C@H](CCCNC(=N)N)NC(=O)[C@@H](NC(=O)[C@H](CCCCN)NC(=O)[C@@H](N)CCCCN)[C@@H](C)CC)C(C)C)C(=O)NCCC(=O)O)C(C)C [L-M33, KKIRVIRLSA, reference compound]
[1]
  MIC: 1.5 µM (≈ 7.02 µg/mL)
[2]
  MIC: 1.5 µM (≈ 7.02 µg/mL)
E. coli ATCC 25922
  MIC: 1.5 µM (≈ 7.02 µg/mL)
[3]
  MIC: 3 µM (≈ 14 µg/mL)
[4]
  MIC: 1.5 µM (≈ 7.02 µg/mL)
P. aeruginosa PAO-1
  MIC: 1.5 µM (≈ 7.02 µg/mL)
Human erythrocytes
  haemolytic activity (percentage of haemolysis): < 5%
[6]
  MIC: 6 µM (≈ 28.1 µg/mL)
Aureolysin
  degradation by protease Aureolysin (HPLC profile): degraded after only 1 hour of incubation

Reference: US8921308B2, “Antimicrobial peptide, branched forms thereof and their use in the treatment of bacteria infections” (priority 2010, dated 2014)
